The record followed here is article PMC12229529 (Scientific Reports, 2025).

The target of test [1] is serine/threonine protein kinase B (PknB). The test is described as follows: SPR. The test is classed as binding, Trueperella pyogenes.
In test [2] the target is T1, PknB (His-PknB) (Trueperella pyogenes, UniProt A0ABV3NC81).
T1 sequence (A0ABV3NC81 1-331): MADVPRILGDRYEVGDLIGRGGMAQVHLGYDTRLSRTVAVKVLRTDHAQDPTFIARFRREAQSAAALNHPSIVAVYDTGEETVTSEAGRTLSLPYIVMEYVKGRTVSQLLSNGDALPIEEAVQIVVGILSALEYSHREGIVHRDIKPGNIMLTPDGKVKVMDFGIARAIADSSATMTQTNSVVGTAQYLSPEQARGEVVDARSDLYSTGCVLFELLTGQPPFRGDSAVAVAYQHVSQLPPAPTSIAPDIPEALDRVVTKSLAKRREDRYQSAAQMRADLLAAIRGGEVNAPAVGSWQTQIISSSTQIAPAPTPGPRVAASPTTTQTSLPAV
The test is described as follows: SPR. The test is classed as binding. To be noted: 1x PBS-P buffer; luteolin 0.3125-10 μmol/L (KD lies above the tested range).

For test [3], the target named is T1, PknB (His-PknB). Kind of test: ATP consumption luminescence. It is filed as biochemical. The conditions noted are these: 20 μM ATP, 10 mM MgCl2, 50 mM Tris-HCl pH 7.8, 1 mM DTT, 25 °C, 30 min.

By Kd is commonly meant a measure of binding affinity in units of concentration. A high value points to a looser complex. The term IC50 denotes the concentration that gives 50% inhibition. A lower IC50 goes with inhibition by little substance.

`O=c1cc(-c2ccc(O)c(O)c2)oc2cc(O)cc(O)c12` [luteolin]: the Kd in test [1] and in test [2] was 312 µM throughout. Moreover, the IC50 in test [3] was 221 µM.
